ChEMBL document CHEMBL3132769, “Fragment growing to retain or alter the selectivity of anchored kinase hinge-binding fragments” (Medchemcomm, 2014)

Columns and labels:
[1] = target: T1, Serine/threonine-protein kinase DCLK2 (Homo sapiens) (UniProt Q8N568); assay: Inhibition of human full length DCAMKL2 expressed in baculovirus assessed as substrate phosphorylation using fluorescence-labelled peptides as substrate at 0.06 uM after 90 mins by microfluidic peptide phosphorylation assay
T1 sequence (whole entry): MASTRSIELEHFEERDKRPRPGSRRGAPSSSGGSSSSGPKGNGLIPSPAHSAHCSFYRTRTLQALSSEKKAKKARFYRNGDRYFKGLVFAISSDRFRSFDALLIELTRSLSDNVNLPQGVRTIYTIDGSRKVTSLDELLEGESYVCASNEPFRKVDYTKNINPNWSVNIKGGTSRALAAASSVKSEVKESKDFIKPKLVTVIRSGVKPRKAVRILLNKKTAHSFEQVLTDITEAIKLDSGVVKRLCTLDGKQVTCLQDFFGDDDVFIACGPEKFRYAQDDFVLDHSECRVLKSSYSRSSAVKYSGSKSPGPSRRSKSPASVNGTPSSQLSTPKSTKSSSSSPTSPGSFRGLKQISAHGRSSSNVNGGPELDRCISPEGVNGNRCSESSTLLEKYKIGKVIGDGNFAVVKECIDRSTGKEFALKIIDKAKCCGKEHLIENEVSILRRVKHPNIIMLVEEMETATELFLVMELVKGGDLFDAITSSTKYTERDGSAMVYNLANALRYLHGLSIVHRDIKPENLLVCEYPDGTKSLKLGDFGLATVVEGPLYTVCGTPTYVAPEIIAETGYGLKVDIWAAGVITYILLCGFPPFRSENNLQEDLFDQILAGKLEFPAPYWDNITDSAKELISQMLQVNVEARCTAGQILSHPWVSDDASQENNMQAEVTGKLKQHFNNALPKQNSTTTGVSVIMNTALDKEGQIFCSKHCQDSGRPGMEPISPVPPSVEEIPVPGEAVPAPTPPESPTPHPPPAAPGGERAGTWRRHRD

[2] = target: Protein kinase C gamma type (Homo sapiens) (UniProt P05129); assay: Inhibition of human truncated PKC gamma expressed in baculovirus assessed as substrate phosphorylation using fluorescence-labelled peptides as substrate at 0.2 uM after 90 mins by microfluidic peptide phosphorylation assay
[3] = target: Fibroblast growth factor receptor 3 (Homo sapiens) (UniProt P22607); assay: Inhibition of human FGFR3 catalytic domain expressed in baculovirus assessed as substrate phosphorylation using fluorescence-labelled peptides as substrate at 0.2 uM after 90 mins by microfluidic peptide phosphorylation assay
Sequence of Fibroblast growth factor receptor 3 (Homo sapiens) (P22607 23-806 limits assumed): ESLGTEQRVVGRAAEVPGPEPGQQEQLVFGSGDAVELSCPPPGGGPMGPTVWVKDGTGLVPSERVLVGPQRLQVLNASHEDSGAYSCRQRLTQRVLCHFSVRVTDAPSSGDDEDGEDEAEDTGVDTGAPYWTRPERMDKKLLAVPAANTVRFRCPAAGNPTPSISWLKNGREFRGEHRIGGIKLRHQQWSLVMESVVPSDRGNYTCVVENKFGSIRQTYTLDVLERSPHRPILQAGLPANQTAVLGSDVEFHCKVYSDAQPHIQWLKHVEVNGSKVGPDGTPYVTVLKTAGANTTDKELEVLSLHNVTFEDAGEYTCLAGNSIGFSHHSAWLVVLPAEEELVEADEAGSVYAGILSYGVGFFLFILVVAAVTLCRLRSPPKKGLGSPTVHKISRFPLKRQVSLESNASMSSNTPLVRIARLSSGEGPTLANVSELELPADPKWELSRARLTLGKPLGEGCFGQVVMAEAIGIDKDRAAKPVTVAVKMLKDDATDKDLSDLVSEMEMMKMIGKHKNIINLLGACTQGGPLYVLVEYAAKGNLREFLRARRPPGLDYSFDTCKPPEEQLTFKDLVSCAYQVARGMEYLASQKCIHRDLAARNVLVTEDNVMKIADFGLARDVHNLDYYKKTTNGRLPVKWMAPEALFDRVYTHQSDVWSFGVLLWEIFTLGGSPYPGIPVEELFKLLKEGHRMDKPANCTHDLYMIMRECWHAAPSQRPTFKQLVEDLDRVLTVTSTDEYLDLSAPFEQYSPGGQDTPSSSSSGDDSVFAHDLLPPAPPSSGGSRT

[4] = target: Tyrosine-protein kinase Fyn (Homo sapiens) (UniProt P06241); assay: Inhibition of human full length FYN expressed in baculovirus assessed as substrate phosphorylation using fluorescence-labelled peptides as substrate at […] after 90 mins by microfluidic peptide phosphorylation assay
Sequence of Tyrosine-protein kinase Fyn (Homo sapiens) (P06241 2-537 limits assumed): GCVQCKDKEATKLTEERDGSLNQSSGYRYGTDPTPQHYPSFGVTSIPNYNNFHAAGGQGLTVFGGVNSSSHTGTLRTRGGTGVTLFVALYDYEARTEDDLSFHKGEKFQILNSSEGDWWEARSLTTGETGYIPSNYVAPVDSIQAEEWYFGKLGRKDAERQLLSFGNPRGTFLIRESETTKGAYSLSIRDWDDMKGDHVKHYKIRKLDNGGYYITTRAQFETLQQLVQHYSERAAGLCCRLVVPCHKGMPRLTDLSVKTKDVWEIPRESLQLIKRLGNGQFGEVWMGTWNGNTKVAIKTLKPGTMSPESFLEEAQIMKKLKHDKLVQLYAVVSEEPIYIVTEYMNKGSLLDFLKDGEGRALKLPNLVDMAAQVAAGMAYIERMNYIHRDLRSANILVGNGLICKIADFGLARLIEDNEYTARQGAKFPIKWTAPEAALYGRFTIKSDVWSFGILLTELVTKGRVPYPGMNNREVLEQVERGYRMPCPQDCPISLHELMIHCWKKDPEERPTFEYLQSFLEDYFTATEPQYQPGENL

[5] = target: T2, Serine/threonine-protein kinase Chk1 (Homo sapiens) (UniProt O14757); conditions: 9 uM
T2 sequence (whole entry): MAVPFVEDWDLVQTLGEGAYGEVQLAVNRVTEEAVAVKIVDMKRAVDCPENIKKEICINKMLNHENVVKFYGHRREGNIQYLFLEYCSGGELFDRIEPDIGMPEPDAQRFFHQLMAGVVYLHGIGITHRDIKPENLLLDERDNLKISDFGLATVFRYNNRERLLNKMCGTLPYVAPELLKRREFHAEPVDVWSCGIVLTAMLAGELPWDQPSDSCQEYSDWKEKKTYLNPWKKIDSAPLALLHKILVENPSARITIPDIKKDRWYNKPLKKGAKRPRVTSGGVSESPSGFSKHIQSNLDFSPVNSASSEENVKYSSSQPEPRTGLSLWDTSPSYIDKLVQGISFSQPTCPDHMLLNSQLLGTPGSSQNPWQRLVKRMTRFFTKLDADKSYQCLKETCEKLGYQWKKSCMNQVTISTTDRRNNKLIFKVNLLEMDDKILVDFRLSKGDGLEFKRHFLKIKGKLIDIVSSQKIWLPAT
Description: Inhibition of human full length CHK1 expressed in baculovirus assessed as substrate phosphorylation using fluorescence-labelled peptides as substrate at 9 uM after 90 mins by microfluidic peptide phosphorylation assay

[6] = target: Tyrosine-protein kinase Fer (Homo sapiens) (UniProt P16591); assay: Inhibition of human FER catalytic domain expressed in baculovirus assessed as substrate phosphorylation using fluorescence-labelled peptides as substrate at 70 uM after 90 mins by microfluidic peptide phosphorylation assay
Sequence of Tyrosine-protein kinase Fer (Homo sapiens) (P16591 whole entry, looked up, the tested form may be a part): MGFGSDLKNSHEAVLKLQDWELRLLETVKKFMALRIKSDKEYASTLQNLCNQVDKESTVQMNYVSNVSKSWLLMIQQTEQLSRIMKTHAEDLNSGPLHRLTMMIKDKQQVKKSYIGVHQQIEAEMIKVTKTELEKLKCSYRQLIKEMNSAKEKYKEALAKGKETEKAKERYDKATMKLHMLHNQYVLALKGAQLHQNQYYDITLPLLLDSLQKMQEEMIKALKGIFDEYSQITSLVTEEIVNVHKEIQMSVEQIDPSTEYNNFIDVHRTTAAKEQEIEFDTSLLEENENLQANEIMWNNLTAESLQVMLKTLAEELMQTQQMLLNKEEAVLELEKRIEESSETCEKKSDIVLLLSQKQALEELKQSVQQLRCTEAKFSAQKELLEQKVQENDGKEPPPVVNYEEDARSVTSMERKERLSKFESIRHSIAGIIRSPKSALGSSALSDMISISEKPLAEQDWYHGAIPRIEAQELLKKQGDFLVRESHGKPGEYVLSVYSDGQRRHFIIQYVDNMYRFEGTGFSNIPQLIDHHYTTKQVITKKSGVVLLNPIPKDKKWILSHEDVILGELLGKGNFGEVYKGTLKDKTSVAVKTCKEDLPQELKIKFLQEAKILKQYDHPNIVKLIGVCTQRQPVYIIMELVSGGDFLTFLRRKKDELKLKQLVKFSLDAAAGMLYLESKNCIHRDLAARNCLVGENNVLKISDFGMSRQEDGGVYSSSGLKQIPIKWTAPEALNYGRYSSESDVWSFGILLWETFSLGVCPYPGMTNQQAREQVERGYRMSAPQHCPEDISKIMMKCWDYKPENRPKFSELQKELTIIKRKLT

[7] = target: Ribosomal protein S6 kinase alpha-2 (Homo sapiens) (UniProt Q15349); assay: Inhibition of human full length RSK3 expressed in baculovirus assessed as substrate phosphorylation using fluorescence-labelled peptides as substrate at 8 uM after 90 mins by microfluidic peptide phosphorylation assay
[8] = target: Fibroblast growth factor receptor 1 (Homo sapiens) (UniProt P11362); assay: Inhibition of human FGFR1 catalytic domain expressed in baculovirus assessed as substrate phosphorylation using fluorescence-labelled peptides as substrate at 8 uM after 90 mins by microfluidic peptide phosphorylation assay
Sequence of Fibroblast growth factor receptor 1 (Homo sapiens) (P11362 22-822 limits assumed): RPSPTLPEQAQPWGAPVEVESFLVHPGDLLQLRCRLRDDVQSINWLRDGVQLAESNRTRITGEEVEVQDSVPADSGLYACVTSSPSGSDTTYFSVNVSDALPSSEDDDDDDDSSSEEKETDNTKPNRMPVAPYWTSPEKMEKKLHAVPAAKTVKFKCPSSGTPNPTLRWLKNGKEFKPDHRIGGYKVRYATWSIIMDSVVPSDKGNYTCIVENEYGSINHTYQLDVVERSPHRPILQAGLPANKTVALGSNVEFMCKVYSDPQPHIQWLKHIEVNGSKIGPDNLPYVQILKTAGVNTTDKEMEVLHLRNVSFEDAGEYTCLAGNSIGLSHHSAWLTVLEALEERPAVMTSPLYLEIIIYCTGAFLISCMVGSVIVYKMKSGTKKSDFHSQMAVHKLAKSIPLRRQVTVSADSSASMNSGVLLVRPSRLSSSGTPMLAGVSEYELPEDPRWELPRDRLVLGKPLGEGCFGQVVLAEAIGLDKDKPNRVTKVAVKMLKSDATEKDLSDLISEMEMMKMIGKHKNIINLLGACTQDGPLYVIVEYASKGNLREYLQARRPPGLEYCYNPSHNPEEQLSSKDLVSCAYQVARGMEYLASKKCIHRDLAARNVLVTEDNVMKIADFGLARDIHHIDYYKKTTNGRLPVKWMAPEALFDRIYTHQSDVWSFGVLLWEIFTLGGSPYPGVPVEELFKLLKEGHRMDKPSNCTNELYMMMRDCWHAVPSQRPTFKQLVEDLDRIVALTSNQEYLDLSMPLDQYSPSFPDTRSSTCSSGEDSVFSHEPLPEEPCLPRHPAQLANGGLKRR

[9] = target: T3, Aurora kinase C (Homo sapiens) (UniProt Q9UQB9); assay: Inhibition of human full length AurC expressed in baculovirus assessed as substrate phosphorylation using fluorescence-labelled peptides as substrate at 8 uM after 90 mins by microfluidic peptide phosphorylation assay
T3 sequence (whole entry): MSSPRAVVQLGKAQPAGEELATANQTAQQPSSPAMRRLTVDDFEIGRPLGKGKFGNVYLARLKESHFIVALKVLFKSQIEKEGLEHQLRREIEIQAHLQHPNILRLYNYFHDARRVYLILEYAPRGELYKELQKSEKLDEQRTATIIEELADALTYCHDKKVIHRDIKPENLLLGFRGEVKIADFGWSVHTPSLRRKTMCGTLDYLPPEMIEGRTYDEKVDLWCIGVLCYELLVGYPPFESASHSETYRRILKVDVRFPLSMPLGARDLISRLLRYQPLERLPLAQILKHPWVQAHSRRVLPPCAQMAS

[10] = target: RAC-alpha serine/threonine-protein kinase (Homo sapiens) (UniProt P31749); conditions: 1000 uM
Sequence of RAC-alpha serine/threonine-protein kinase (Homo sapiens) (P31749 whole entry): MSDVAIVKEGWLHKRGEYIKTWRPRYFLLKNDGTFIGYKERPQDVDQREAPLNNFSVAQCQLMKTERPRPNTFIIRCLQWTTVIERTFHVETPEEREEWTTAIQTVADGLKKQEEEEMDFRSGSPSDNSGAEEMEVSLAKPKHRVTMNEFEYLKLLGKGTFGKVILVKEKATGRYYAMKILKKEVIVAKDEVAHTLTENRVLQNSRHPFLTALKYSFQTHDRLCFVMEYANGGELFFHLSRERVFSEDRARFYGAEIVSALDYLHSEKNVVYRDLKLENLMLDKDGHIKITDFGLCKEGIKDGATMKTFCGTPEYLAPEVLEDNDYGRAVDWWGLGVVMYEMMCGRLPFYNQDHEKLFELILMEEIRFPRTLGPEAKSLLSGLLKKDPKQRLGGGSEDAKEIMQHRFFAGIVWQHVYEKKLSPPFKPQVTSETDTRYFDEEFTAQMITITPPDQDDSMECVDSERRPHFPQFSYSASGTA
Description: Inhibition of human AKT1 catalytic domain expressed in baculovirus assessed as substrate phosphorylation using fluorescence-labelled peptides as substrate at 1000 uM after 90 mins by microfluidic peptide phosphorylation assay

[11] = target: Tyrosine-protein kinase Lck (Homo sapiens) (UniProt P06239); assay: Inhibition of human full length LCK expressed in baculovirus assessed as substrate phosphorylation using fluorescence-labelled peptides as substrate at 2 uM after 90 mins by microfluidic peptide phosphorylation assay
Sequence of Tyrosine-protein kinase Lck (Homo sapiens) (P06239 2-509 limits assumed): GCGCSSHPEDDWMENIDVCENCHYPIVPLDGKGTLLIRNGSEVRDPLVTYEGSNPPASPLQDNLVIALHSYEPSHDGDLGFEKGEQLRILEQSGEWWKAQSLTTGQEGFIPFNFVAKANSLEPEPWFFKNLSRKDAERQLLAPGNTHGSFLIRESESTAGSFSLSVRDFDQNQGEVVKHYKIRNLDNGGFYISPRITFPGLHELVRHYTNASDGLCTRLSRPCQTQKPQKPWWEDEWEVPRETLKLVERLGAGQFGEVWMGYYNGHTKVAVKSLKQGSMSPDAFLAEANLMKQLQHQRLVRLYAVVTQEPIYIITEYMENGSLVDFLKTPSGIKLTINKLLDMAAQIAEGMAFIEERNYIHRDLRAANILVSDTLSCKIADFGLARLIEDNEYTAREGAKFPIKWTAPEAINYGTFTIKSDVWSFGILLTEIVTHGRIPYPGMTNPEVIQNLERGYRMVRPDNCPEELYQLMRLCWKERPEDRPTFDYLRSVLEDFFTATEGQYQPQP

NC1(Cc2ccc(Cl)cc2)CCN(c2ncnc3[nH]ccc23)CC1
inhibition [1]: 0%

Clc1ccc(C2(c3ccc(-c4ncnc5[nH]cnc45)cc3)CCNCC2)cc1
inhibition [2]: 80%
inhibition [3]: 0%

COC(=O)c1cnc(Nc2cnc(C#N)cn2)cc1NCC1CCNCC1
inhibition [4]: 2%

NCC1CN(c2ncnc3[nH]c4cnccc4c23)CCO1 (stereo unspecified)
inhibition [5]: 91%

CNCc1ccc(-c2ncnc3[nH]cnc23)cc1
inhibition [6]: 30%

NCC1CCN(c2ncnc3[nH]ccc23)CC1
inhibition [7]: 28%
inhibition [8]: 36.5%
inhibition [9]: 34%

c1cnc2[nH]ccc2c1
inhibition [10]: 65.5%

NC1CCN(c2ncnc3[nH]ccc23)CC1
inhibition [11]: 4.5%
